Data from US10208081B2, “Bile acid derivatives as FXR/TGR5 agonists and methods of use thereof” (Enanta Pharmaceuticals, Inc., priority 2014, dated 2019).

Biological target: human FXR (NR1H4) (Homo sapiens (Human), UniProt Q96RI1)
Test: Human FXR (NR1H4) Assay (Gal4 promoter driven luciferase reporter, Indigo Bioscience kit IB00601)
Type: cell-based
Details: for Efficacy (%): efficacy normalized to CDCA set as 100%; for EC50: potency ranges
From the text: Assays Human FXR (NR1H4) Assay
Determination of a ligand mediated Gal4 promoter driven transactivation quantify ligand binding mediated activation of FXR. FXR Reporter Assay kit purchased from Indigo Bioscience (Catalogue number: IB00601) to determine the potency and efficacy of compound developed by Enanta that can induce FXR activation. The principle application of this reporter assay system is to quantify functional activity of human FXR. The assay utilizes non-human mammalian cells, CHO (Chinese hamster ovary) cells engineered to express human NR1H4 protein (referred to as FXR). Reporter cells also incorporate the cDNA encoding beetle luciferase which catalyzes the substrates and yields photon emission. Luminescence intensity of the reaction is quantified using a plate-reading luminometer, Envision. Reporter Cells include the luciferase reporter gene functionally linked to an FXR responsive promoter. Thus, quantifying changes in luciferase expression in the treated reporter cells provides a sensitive surrogate measure of the changes in FXR activity. […] The assay is according to the manufacturer's instructions. In brief, the assay was performed in white, 96 well plates using final volume of 100 ul containing cells with different doses of compounds. Retrieve Reporter Cells from −80° C. storage. Perform a rapid thaw of the frozen cells by transferring a 10 ml volume of 37° C. cell recovery medium into the tube of frozen cells. Recap the tube of Reporter Cells and immediately place it in a 37° C. water bath for 5-10 minutes. Retrieve the tube of Reporter Cell Suspension from the water bath. Sanitize the outside surface of the tube with a 70% alcohol swab, and then transfer it into the cell culture hood. Dispense 90 μl of cell suspension into each well of the 96-well Assay Plate. Transfer the plate into 37° C. incubator, allowing the cells adherent to the bottom of the well. Dilute compounds in Dilution Plate (DP), and administrate to cells at Assay Plate (AP). DMSO content of the samples was kept at 0.2%. Cells were incubated for additional 22 hours before luciferase activities were measured. Thirty minutes before intending to quantify FXR activity, remove Detection Substrate and Detection Buffer from the refrigerator and place them in a low-light area so that they may equilibrate to room temperature. Remove the plate's lid and discard all media contents by ejecting it into an appropriate waste container. Gently tap the inverted plate onto a clean absorbent paper towel to remove residual droplets. Cells will remain tightly adhered to well bottoms. Add 100 μl of luciferase detection reagent to each well of the assay plate. Allow the assay plate to rest at room temperature for at least 5 minutes following the addition of LDR. Set the instrument (Envision) to perform a single 5 second “plate shake” prior to reading the first assay well. Read time may be 0.5 second (500 mSec) per well.

human FXR (NR1H4), sequence (Q96RI1 whole entry, the tested form may be a part): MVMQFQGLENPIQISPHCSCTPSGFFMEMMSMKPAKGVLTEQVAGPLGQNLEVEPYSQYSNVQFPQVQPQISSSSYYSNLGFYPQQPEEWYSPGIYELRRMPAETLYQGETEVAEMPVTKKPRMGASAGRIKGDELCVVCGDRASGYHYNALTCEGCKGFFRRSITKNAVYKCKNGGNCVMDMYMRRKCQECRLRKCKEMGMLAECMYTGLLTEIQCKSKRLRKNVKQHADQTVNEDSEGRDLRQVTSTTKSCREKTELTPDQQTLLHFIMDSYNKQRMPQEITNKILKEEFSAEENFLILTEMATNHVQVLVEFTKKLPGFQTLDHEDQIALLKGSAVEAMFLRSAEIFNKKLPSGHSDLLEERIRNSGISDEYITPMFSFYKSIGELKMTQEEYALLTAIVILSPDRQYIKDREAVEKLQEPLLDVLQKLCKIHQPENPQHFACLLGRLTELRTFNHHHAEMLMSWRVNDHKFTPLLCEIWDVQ

Structure (SMILES) | Efficacy (%) | EC50
CC[C@H]1[C@@H](O)[C@@H]2[C@H](CC[C@]3(C)[C@@H]([C@H](C)CCNS(=O)(=O)c4cccc(N5CCCCC5)c4)CC[C@@H]23)[C@@]2(C)CC[C@@H](O)C[C@@H]12 [Example 133] | 80% | > 10 µM
CC[C@H]1[C@@H](O)[C@@H]2[C@H](CC[C@]3(C)[C@@H]([C@H](C)CCNC(=O)NS(=O)(=O)c4ccc(C(C)(C)C(=O)OC)cc4)CC[C@@H]23)[C@@]2(C)CC[C@@H](O)C[C@@H]12 [Example 70] | 434% | < 0.1 µM
CC[C@H]1[C@@H](O)[C@@H]2[C@H](CC[C@]3(C)[C@@H]([C@H](C)CCNC(=O)NS(=O)(=O)c4ccc(C5(C(F)(F)F)CC5)cc4)CC[C@@H]23)[C@@]2(C)CC[C@@H](O)C[C@@H]12 [Example 106] | 281% | < 0.1 µM
CC[C@H]1[C@@H](O)[C@@H]2[C@H](CC[C@]3(C)[C@@H]([C@H](C)CCNC(=O)NS(=O)(=O)C4CC5CCC4C5)CC[C@@H]23)[C@@]2(C)CC[C@@H](O)C[C@@H]12 (stereo partly shown) [Example 76] | 290% | < 0.1 µM
CC[C@H]1[C@@H](O)[C@@H]2[C@H](CC[C@]3(C)[C@@H]([C@H](C)CCNC(=O)NS(=O)(=O)NC)CC[C@@H]23)[C@@]2(C)CC[C@@H](O)C[C@@H]12 [Example 125] | 256% | 1 to 10 µM
CC[C@H]1[C@@H](O)[C@@H]2[C@H](CC[C@]3(C)[C@@H]([C@H](C)CNC(=O)NS(=O)(=O)c4cccc(C(C)(C)C)c4)CC[C@@H]23)[C@@]2(C)CC[C@@H](O)C[C@@H]12 [Example 115] | 291% | 0.1 to 1 µM
CC[C@H]1[C@@H](O)[C@@H]2[C@H](CC[C@]3(C)[C@@H]([C@H](C)CCNC(=O)N(C)S(=O)(=O)c4ccccc4)CC[C@@H]23)[C@@]2(C)CC[C@@H](O)C[C@@H]12 [Example 56] | 295% | 0.1 to 1 µM
CC[C@H]1[C@@H](O)[C@@H]2[C@H](CC[C@]3(C)[C@@H]([C@H](C)CCNC(=O)NS(=O)(=O)N4CC(C)C(C)C4)CC[C@@H]23)[C@@]2(C)CC[C@@H](O)C[C@@H]12 (stereo partly shown) [Example 99] | 266% | < 0.1 µM
CC[C@H]1[C@@H](O)[C@@H]2[C@H](CC[C@]3(C)[C@@H]([C@H](C)CCNC(=O)NS(=O)(=O)c4ccc(-c5ccccc5)cc4)CC[C@@H]23)[C@@]2(C)CC[C@@H](O)C[C@@H]12 [Example 54] | 273% | < 0.1 µM
CC[C@H]1[C@@H](O)[C@@H]2[C@H](CC[C@]3(C)[C@@H]([C@H](C)CCCNS(=O)(=O)C(C)C)CC[C@@H]23)[C@@]2(C)CC[C@@H](O)C[C@@H]12 [Example 11] | 267% | 1 to 10 µM
CC[C@H]1[C@@H](O)[C@@H]2[C@H](CC[C@]3(C)[C@@H]([C@H](C)CCNC(=O)NS(=O)(=O)N4CCC5(CC4)CC5)CC[C@@H]23)[C@@]2(C)CC[C@@H](O)C[C@@H]12 [Example 86] | 390% | < 0.1 µM
CC[C@H]1[C@@H](O)[C@@H]2[C@H](CC[C@]3(C)[C@@H]([C@H](C)CCNC(=O)NS(=O)(=O)c4ccc(-c5ccno5)cc4C)CC[C@@H]23)[C@@]2(C)CC[C@@H](O)C[C@@H]12 [Example 72] | 384% | 0.1 to 1 µM
CC[C@H]1[C@@H](O)[C@@H]2[C@H](CC[C@]3(C)[C@@H]([C@H](C)CCNC(=O)NS(=O)(=O)c4cccc5ncccc45)CC[C@@H]23)[C@@]2(C)CC[C@@H](O)C[C@@H]12 [Example 107] | 311% | 0.1 to 1 µM
CC[C@H]1[C@@H](O)[C@@H]2[C@H](CC[C@]3(C)[C@@H]([C@H](C)CCNC(=O)NS(=O)(=O)c4ccc(-c5csc(C)n5)cc4)CC[C@@H]23)[C@@]2(C)CC[C@@H](O)C[C@@H]12 [Example 71] | 419% | 0.1 to 1 µM
CC[C@H]1[C@@H](O)[C@@H]2[C@H](CC[C@]3(C)[C@@H]([C@H](C)CNC(=O)NS(=O)(=O)c4ccc(N5CCCCC5)cc4)CC[C@@H]23)[C@@]2(C)CC[C@@H](O)C[C@@H]12 [Example 118] | 267% | < 0.1 µM
CC[C@H]1[C@@H](O)[C@@H]2[C@H](CC[C@]3(C)[C@@H]([C@H](C)CNC(=O)NS(=O)(=O)C4CC4)CC[C@@H]23)[C@@]2(C)CC[C@@H](O)C[C@@H]12 [Example 30] | 194% | 1 to 10 µM
CC[C@H]1[C@@H](O)[C@@H]2[C@H](CC[C@]3(C)[C@@H]([C@H](C)CCNC(=O)NS(=O)(=O)c4ccc(C(=O)OC)cc4)CC[C@@H]23)[C@@]2(C)CC[C@@H](O)C[C@@H]12 [Example 123] | 271% | 0.1 to 1 µM
CC[C@H]1[C@@H](O)[C@@H]2[C@H](CC[C@]3(C)[C@@H]([C@H](C)CCNC(=O)NS(=O)(=O)C4CCCC4)CC[C@@H]23)[C@@]2(C)CC[C@@H](O)C[C@@H]12 [Example 27] | 275% | < 0.1 µM
CC[C@H]1[C@@H](O)[C@@H]2[C@H](CC[C@]3(C)[C@@H]([C@H](C)CCNC(=O)NS(=O)(=O)N(C(C)C)C(C)C)CC[C@@H]23)[C@@]2(C)CC[C@@H](O)C[C@@H]12 [Example 52] | 281% | 0.1 to 1 µM
CC[C@H]1[C@@H](O)[C@@H]2[C@H](CC[C@]3(C)[C@@H]([C@H](C)CNC(=O)NS(=O)(=O)c4ccc5ccccc5c4)CC[C@@H]23)[C@@]2(C)CC[C@@H](O)C[C@@H]12 [Example 32] | 309% | < 0.1 µM
CC[C@H]1[C@@H](O)[C@@H]2[C@H](CC[C@]3(C)[C@@H]([C@H](C)CCNC(=O)NS(=O)(=O)c4ccc(C5CCCCC5)cc4)CC[C@@H]23)[C@@]2(C)CC[C@@H](O)C[C@@H]12 [Example 59] | 344% | 0.1 to 1 µM
CC[C@H]1[C@@H](O)[C@@H]2[C@H](CC[C@]3(C)[C@@H]([C@H](C)CCNC(=O)NS(=O)(=O)C4CCC(C)(C)CC4)CC[C@@H]23)[C@@]2(C)CC[C@@H](O)C[C@@H]12 [Example 101] | 244% | < 0.1 µM
CC[C@H]1[C@@H](O)[C@@H]2[C@H](CC[C@]3(C)[C@@H]([C@H](C)CCNC(=O)NS(=O)(=O)N4CCC(C(C)(C)C)CC4)CC[C@@H]23)[C@@]2(C)CC[C@@H](O)C[C@@H]12 [Example 67] | 351% | < 0.1 µM
CC[C@H]1[C@@H](O)[C@@H]2[C@H](CC[C@]3(C)[C@@H]([C@H](C)CCNS(=O)(=O)CC(=O)O)CC[C@@H]23)[C@@]2(C)CC[C@@H](O)C[C@@H]12 [Example 132] | 7% | 1 to 10 µM
CC[C@H]1[C@@H](O)[C@@H]2[C@H](CC[C@]3(C)[C@@H]([C@H](C)CCCNC(=O)NS(=O)(=O)C4CC4)CC[C@@H]23)[C@@]2(C)CC[C@@H](O)C[C@@H]12 [Example 20] | 334% | 0.1 to 1 µM
CC[C@H]1[C@@H](O)[C@@H]2[C@H](CC[C@]3(C)[C@@H]([C@H](C)CCNC(=O)NS(N)(=O)=O)CC[C@@H]23)[C@@]2(C)CC[C@@H](O)C[C@@H]12 [Example 124] | 195% | 1 to 10 µM
CC[C@H]1[C@@H](O)[C@@H]2[C@H](CC[C@]3(C)[C@@H]([C@H](C)CCNC(=O)NS(=O)(=O)N4CCN(C(C)(C)C)CC4)CC[C@@H]23)[C@@]2(C)CC[C@@H](O)C[C@@H]12 [Example 84] | 351% | 0.1 to 1 µM
CC[C@H]1[C@@H](O)[C@@H]2[C@H](CC[C@]3(C)[C@@H]([C@H](C)CCNC(=O)NS(=O)(=O)c4cc(F)cc(OC)c4)CC[C@@H]23)[C@@]2(C)CC[C@@H](O)C[C@@H]12 [Example 103] | 328% | < 0.1 µM
CC[C@H]1[C@@H](O)[C@@H]2[C@H](CC[C@]3(C)[C@@H]([C@H](C)CCNC(=O)NS(=O)(=O)N4CCCCCC4)CC[C@@H]23)[C@@]2(C)CC[C@@H](O)C[C@@H]12 [Example 47] | 361% | < 0.1 µM
